# Read-outs that look alike come from different tables or passages of the source.
# Legend:
# Assay type in all cases: biochemical
# Sec597Cys SmTGR [1] = biological target: T1, Sec597Cys SmTGR (Schistosoma mansoni, UniProt Q962Y6); experiment: Substrate specificity, NADPH consumption, Sec597Cys; settings: 100 μM NADPH
# wild-type TGR (SmTGR) = biological target: T2, wild-type TGR (SmTGR) (Schistosoma mansoni, UniProt Q962Y6); experiment: Substrate specificity, NADPH consumption, wild-type TGR
# T2 sequence (Q962Y6 1-598): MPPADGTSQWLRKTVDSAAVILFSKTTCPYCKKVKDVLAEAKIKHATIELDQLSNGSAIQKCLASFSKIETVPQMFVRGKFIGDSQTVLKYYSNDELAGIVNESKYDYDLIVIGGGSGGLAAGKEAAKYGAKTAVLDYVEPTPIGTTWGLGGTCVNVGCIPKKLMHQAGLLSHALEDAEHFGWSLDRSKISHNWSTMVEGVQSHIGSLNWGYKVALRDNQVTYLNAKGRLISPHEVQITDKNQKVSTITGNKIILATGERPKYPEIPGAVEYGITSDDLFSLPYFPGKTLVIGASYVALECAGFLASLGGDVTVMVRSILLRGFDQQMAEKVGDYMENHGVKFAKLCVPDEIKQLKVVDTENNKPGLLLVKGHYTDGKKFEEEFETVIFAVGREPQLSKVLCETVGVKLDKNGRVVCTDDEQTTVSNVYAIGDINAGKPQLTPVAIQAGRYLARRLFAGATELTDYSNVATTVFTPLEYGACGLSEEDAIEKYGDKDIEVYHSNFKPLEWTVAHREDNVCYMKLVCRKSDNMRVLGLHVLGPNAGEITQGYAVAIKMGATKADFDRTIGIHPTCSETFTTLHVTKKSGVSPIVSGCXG
# WT SmTGR [2] = biological target: T3, WT SmTGR (Schistosoma mansoni, UniProt Q962Y6); experiment: Inhibition of DTNB activity of WT SmTGR
# Sec597Cys SmTGR [3] = biological target: T1, Sec597Cys SmTGR; experiment: Inhibition of DTNB activity of Sec597Cys
# WT SmTGR [4] = biological target: T3, WT SmTGR; experiment: Inhibition of GR activity of WT SmTGR
# Sec597Cys SmTGR [5] = biological target: T1, Sec597Cys SmTGR; experiment: Inhibition of GR activity of Sec597Cys
# WT SmTGR [6] = biological target: T3, WT SmTGR; experiment: Inhibition of TrxR activity of WT SmTGR
# Sec597Cys SmTGR [7] = biological target: T1, Sec597Cys SmTGR; experiment: Inhibition of TrxR activity of Sec597Cys
# [8] = Sec597Cys 100 or 150 nM, ND = undetectable activity
# [9] = WT enzyme 20 or 100 nM, 100 μM NADPH, ND = undetectable activity
compound,measurement,setting,value
"O=C1NC(=O)C(=O)C(=O)N1 [Alloxan, alloxan]",Km,Sec597Cys SmTGR [1]; [8],0.88 ± 0.07 mM
"O=C(O)CCCC[C@@H]1CCSS1 (racemic) [Lipoic acid, lipoic acid]",Km,wild-type TGR (SmTGR); [9],2.9 ± 0.7 mM
same,Km,Sec597Cys SmTGR [1]; [8],9.3 ± 2.9 mM
"OO [H2O2, hydrogen peroxide]",Km,wild-type TGR (SmTGR),17.3 ± 7.6 mM
same,Vmax,wild-type TGR (SmTGR); pH 7.4,4.6 ± 0.7 s⁻¹
same,Km,Sec597Cys SmTGR [1]; [8],52.4 ± 9.8 mM
"CC(C)(C)OO [t-Butyl-OOH, tert-butyl hydroperoxide]",Km,wild-type TGR (SmTGR); [9],75 ± 10 mM
same,Km,Sec597Cys SmTGR [1]; [8],53 ± 5 mM
"N#Cc1c(-c2ccccc2)no[n+]1[O-] [Fx, 4-phenyl-1,2,5-oxadiazole-3-carbonitrile-2-oxide]",IC50,WT SmTGR [2],3 µM
same,IC50,Sec597Cys SmTGR [3],6 µM
same,IC50,WT SmTGR [4],3.2 µM
same,IC50,Sec597Cys SmTGR [5],2.5 µM
same,IC50,WT SmTGR [6],5.4 µM
same,IC50,Sec597Cys SmTGR [7],2.1 µM
"O=[Se](O)O [NaSeO3, sodium selenite]",Km,"wild-type TGR (SmTGR); WT enzyme 100 nM, 100 μM NADPH",0.0087 ± 0.0025 mM
same,Km,Sec597Cys SmTGR [1]; Sec597Cys 100 nM,0.0173 ± 0.0044 mM

# From paper PMC3658134 (Biochemistry, 2011)
